Assays:
thistle (CIRAR) = experiment: Postemergence greenhouse trial, % visual injury on thistle; type: in vivo, Cirsium arvense; conditions: for % visual injury, observed (Ob): CIRAR
Summary of the method: (§1)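 Visual injury, 0 (none) to 100 (complete kill), rated 20-22 d after overhead track-sprayer application at 187 L/ha; Colby's equation gave expected mixture responses. Herbicide (g ae/ha) and cloquintocet-mexyl safener (g ai/ha) diluted in aqueous 1.5% v/v Agri-dex, applied to weeds at 2–3 true leaves.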

[1] = system: bird's-eye speedwell (VERPE); experiment: Postemergence greenhouse trial, % visual injury on bird's-eye speedwell; type: in vivo, Veronica persica; conditions: for % visual injury, Ob: alone; for % visual injury, observed (Ob): VERPE
Summary of the method: (§2)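 Herbicide rates g ae/ha, safener (cloquintocet-mexyl) rates g ai/ha; spray carrier 1.5% v/v crop oil concentrate, 187 L/ha, 2nd–3rd leaf stage. Rating: visual % injury at 20-22 d.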

pigweed (AMARE) = experiment: Postemergence greenhouse trial, % visual injury on pigweed; type: in vivo, Amaranthus retroflexus; conditions: for % visual injury, observed (Ob): AMARE
Summary of the method: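 Injury was scored visually (0 = none, 100 = complete kill) 20–22 d after track-sprayer application at 187 L/ha, compared with solvent-sprayed controls. Test plants at the 2–3 true leaf stage; herbicide (g ae/ha) plus cloquintocet-mexyl safener (g ai/ha) in crop-oil-containing spray; expected mixture response by Colby.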

[2] = system: purple deadnettle (LAMPU); experiment: Postemergence greenhouse trial, % visual injury on purple deadnettle; type: in vivo, Lamium purpureum; conditions: for % visual injury, Ob: alone; for % visual injury, observed (Ob): LAMPU
Procedure: Seeds of the desired test plant species were planted in Sun Gro MetroMix® 306 planting mixture, which typically has a pH of 6.0 to 6.8 and an organic matter content of about 30 percent, in plastic pots with a surface area of 103.2 square centimeters (cm^2). When required to ensure good germination and healthy plants, a fungicide treatment and/or other chemical or physical treatment was applied. The plants were grown for 7-36 days (d) in a greenhouse with an approximate 14-hour (h) photoperiod which was maintained at about 23° C. during the day and 22° C. during the night. Nutrients and water were added on a regular basis and supplemental lighting was provided with overhead metal halide 1000-Watt lamps as necessary. The plants were employed for testing when they reached the second or third true leaf stage.
Weighed amounts of technical material were dissolved in a volume of 97:3 volume per volume (v/v) acetone/dimethyl sulfoxide (DMSO) to stock solutions. […] The concentrated stock solutions were diluted with an aqueous mixture of 1.5% v/v of Agri-dex crop oil concentrate to provide the appropriate application rates. Compound requirements are based upon a 12 milliliter (mL) application volume at a rate of 187 liters per hectare (L/ha). Stocks solutions of the safeners were prepared following the same procedure. Spray solutions of the safeners and experimental compound mixtures were prepared by adding the stock solutions to the appropriate amount of dilution solution to form a 12 mL spray solution in two-way combinations. Formulated compounds were applied to the plant material with an overhead Mandel track sprayer equipped with 8002E nozzles calibrated to deliver 187 L/ha over an application area of 0.503 square meters (m^2) at a spray height of 18 inches (43 centimeters (cm)) above average plant canopy. Control plants were sprayed in the same manner with the solvent blank. All herbicide application (component a) rates are in g ae/ha and all safener (component b) rates are in g ai/ha.
The treated plants and control plants were placed in a greenhouse as described above and watered by sub-irrigation to prevent wash-off of the test compounds. After 20-22 d, the condition of the test plants as compared with that of the control plants was determined visually and scored on a scale of 0 to 100 percent where 0 corresponds to no injury and 100 corresponds to complete kill. […] Colby's equation was used to determine the herbicidal effects expected from the mixtures. […]

kochia (KCHSC) = experiment: Postemergence greenhouse trial, % visual injury on kochia; type: in vivo, Kochia scoparia; conditions: for % visual injury, observed (Ob): KCHSC
Summary of the method: as §2

spring barley (HORVS) = experiment: Postemergence greenhouse trial, % visual injury on spring barley; type: in vivo, Hordeum vulgare; conditions: alone
Summary of the method: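 Greenhouse crops at second to third true leaf stage sprayed postemergence at 187 L/ha with herbicide (g ae/ha) plus safener (g ai/ha) in acetone/DMSO diluted into 1.5% v/v Agri-dex. Injury scored visually versus solvent-blank controls after 20-22 d, 0 (none) to 100% (complete kill); expected mixture effects by Colby's equation.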

winter rape (BRSNW) = experiment: Postemergence greenhouse trial, % visual injury on winter rape; type: in vivo, Brassica napus; conditions: for % visual injury, observed (Ob): BRSNW
Summary of the method: as §1

[3] = Cirsium arvense, post-emergence, alone, read-out: % visual injury, Ob
[4] = Amaranthus retroflexus, post-emergence, alone, 35 g/ha, read-out: % visual injury, Ob
[5] = Brassica napus, post-emergence, alone, read-out: % visual injury, Ob
[6] = compound 2 4.380 + CQC-m 0 g/ha

Nc1c(F)c(-c2ccc3cc[nH]c3c2F)nc(C(=O)O)c1Cl [compound 1]
pest or weed control at 4.375 g/ha (thistle (CIRAR); Cirsium arvense, post-emergence, alone, 4.375 g/ha, read-out: % visual injury, Ob): 35% | pest or weed control at 8.75 g/ha (thistle (CIRAR); Cirsium arvense, post-emergence, alone, 8.75 g/ha, read-out: % visual injury, Ob): 62% | pest or weed control at 17.5 g/ha (thistle (CIRAR); Cirsium arvense, post-emergence, alone, 17.5 g/ha, read-out: % visual injury, Ob): 80% | pest or weed control at 35 g/ha (thistle (CIRAR); [3]): 90% | pest or weed control at 70 g/ha (thistle (CIRAR); Cirsium arvense, post-emergence, alone, 70 g/ha, read-out: % visual injury, Ob): 96% | % visual injury, Ob ([1]; 4.375 g/ha): 93% | % visual injury, Ob ([1]; 8.75 g/ha): 95% | % visual injury, Ob ([1]; 17.5 g/ha): 98% | % visual injury, Ob ([1]; 35 g/ha): 99% | % visual injury, Ob ([1]; 70 g/ha): 99% | % visual injury, observed (Ob) (pigweed (AMARE); compound 1 alone 20 g/ha): 100% | % visual injury, observed (Ob) (pigweed (AMARE); compound 1 alone 40 g/ha): 100% | pest or weed control at 4.375 g/ha (pigweed (AMARE); Amaranthus retroflexus, post-emergence, alone, 4.375 g/ha, read-out: % visual injury, Ob): 81% | pest or weed control at 8.75 g/ha (pigweed (AMARE); Amaranthus retroflexus, post-emergence, alone, 8.75 g/ha, read-out: % visual injury, Ob): 91% | pest or weed control at 17.5 g/ha (pigweed (AMARE); Amaranthus retroflexus, post-emergence, alone, 17.5 g/ha, read-out: % visual injury, Ob): 99% | pest or weed control at 35 g/ha (pigweed (AMARE); [4]): 100% | pest or weed control at 70 g/ha (pigweed (AMARE); Amaranthus retroflexus, post-emergence, alone, 70 g/ha, read-out: % visual injury, Ob): 100% | % visual injury, Δ (pigweed (AMARE); alone, 35 g/ha): 0% | % visual injury, Ob ([2]; 4.375 g/ha): 76% | % visual injury, Ob ([2]; 8.75 g/ha): 86% | % visual injury, Ob ([2]; 17.5 g/ha): 90% | % visual injury, Ob ([2]; 35 g/ha): 98% | % visual injury, Ob ([2]; 70 g/ha): 100% | pest or weed control at 4.375 g/ha (kochia (KCHSC); Bassia scoparia, post-emergence, alone, 4.375 g/ha, read-out: % visual injury, Ob): 67% | pest or weed control at 8.75 g/ha (kochia (KCHSC); Bassia scoparia, post-emergence, alone, 8.75 g/ha, read-out: % visual injury, Ob): 72% | pest or weed control at 17.5 g/ha (kochia (KCHSC); Bassia scoparia, post-emergence, alone, 17.5 g/ha, read-out: % visual injury, Ob): 93% | pest or weed control at 35 g/ha (kochia (KCHSC); Bassia scoparia, post-emergence, alone, 35 g/ha, read-out: % visual injury, Ob): 92% | pest or weed control at 70 g/ha (kochia (KCHSC); Bassia scoparia, post-emergence, alone, 70 g/ha, read-out: % visual injury, Ob): 97% | % visual injury, Ob (spring barley (HORVS); 4.375 g/ha): 13% | % visual injury, Ob (spring barley (HORVS); 8.75 g/ha): 13% | % visual injury, Ob (spring barley (HORVS); 17.5 g/ha): 24% | % visual injury, Ob (spring barley (HORVS); 35 g/ha): 32% | % visual injury, Ob (spring barley (HORVS); 70 g/ha): 41% | plant injury at 4.375 g/ha (winter rape (BRSNW); Brassica napus, post-emergence, alone, 4.375 g/ha, read-out: % visual injury, Ob): 79% | plant injury at 8.75 g/ha (winter rape (BRSNW); Brassica napus, post-emergence, alone, 8.75 g/ha, read-out: % visual injury, Ob): 84% | plant injury at 17.5 g/ha (winter rape (BRSNW); Brassica napus, post-emergence, alone, 17.5 g/ha, read-out: % visual injury, Ob): 96% | plant injury at 35 g/ha (winter rape (BRSNW); [5]): 99% | plant injury at 70 g/ha (winter rape (BRSNW); Brassica napus, post-emergence, alone, 70 g/ha, read-out: % visual injury, Ob): 100%

Nc1c(F)c(-c2ccc3cc[nH]c3c2F)nc(C(=O)OCc2ccccc2)c1Cl [compound 2]
% visual injury, observed (Ob) (thistle (CIRAR); [6]): 35% | % visual injury, observed (Ob) (thistle (CIRAR); compound 2 8.75 + CQC-m 0 g/ha): 63% | % visual injury, observed (Ob) (thistle (CIRAR); compound 2 17.5 + CQC-m 0 g/ha): 80% | % visual injury, observed (Ob) (thistle (CIRAR); compound 2 35 + CQC-m 0 g/ha): 99% | % visual injury, observed (Ob) (thistle (CIRAR); compound 2 70 + CQC-m 0 g/ha): 99% | pest or weed control at 35 g/ha (thistle (CIRAR); [3]): 70% | % visual injury, observed (Ob) [1, 6]: 75% | % visual injury, observed (Ob) ([1]; compound 2 8.75 + CQC-m 0 g/ha): 95% | % visual injury, observed (Ob) ([1]; compound 2 17.5 + CQC-m 0 g/ha): 100% | % visual injury, observed (Ob) ([1]; compound 2 35 + CQC-m 0 g/ha): 100% | % visual injury, observed (Ob) ([1]; compound 2 70 + CQC-m 0 g/ha): 100% | % visual injury, observed (Ob) (pigweed (AMARE); [6]): 80% | % visual injury, observed (Ob) (pigweed (AMARE); compound 2 8.75 + CQC-m 0 g/ha): 95% | % visual injury, observed (Ob) (pigweed (AMARE); compound 2 17.5 + CQC-m 0 g/ha): 100% | pest or weed control at 35 g/ha (pigweed (AMARE); [4]): 100% | % visual injury, observed (Ob) [2, 6]: 85% | % visual injury, observed (Ob) ([2]; compound 2 8.75 + CQC-m 0 g/ha): 93% | % visual injury, observed (Ob) ([2]; compound 2 17.5 + CQC-m 0 g/ha): 95% | % visual injury, observed (Ob) ([2]; compound 2 35 + CQC-m 0 g/ha): 100% | % visual injury, observed (Ob) ([2]; compound 2 70 + CQC-m 0 g/ha): 100% | % visual injury, observed (Ob) (kochia (KCHSC); [6]): 93% | % visual injury, observed (Ob) (kochia (KCHSC); compound 2 8.75 + CQC-m 0 g/ha): 95% | % visual injury, observed (Ob) (kochia (KCHSC); compound 2 17.5 + CQC-m 0 g/ha): 98% | % visual injury, observed (Ob) (kochia (KCHSC); compound 2 35 + CQC-m 0 g/ha): 99% | % visual injury, observed (Ob) (kochia (KCHSC); compound 2 70 + CQC-m 0 g/ha): 100% | % visual injury, observed (Ob) (kochia (KCHSC); compound 2 140 + CQC-m 0 g/ha): 95% | % visual injury, observed (Ob) (winter rape (BRSNW); [6]): 84% | % visual injury, observed (Ob) (winter rape (BRSNW); compound 2 8.75 + CQC-m 0 g/ha): 88% | % visual injury, observed (Ob) (winter rape (BRSNW); compound 2 17.5 + CQC-m 0 g/ha): 55% | % visual injury, observed (Ob) (winter rape (BRSNW); compound 2 35 + CQC-m 0 g/ha): 100% | % visual injury, observed (Ob) (winter rape (BRSNW); compound 2 70 + CQC-m 0 g/ha): 100% | plant injury at 35 g/ha (winter rape (BRSNW); [5]): 100%
